# In a melting point compilation (Tetko et al.; mined from patent text by program, amines drawn as free bases though some values may be those of a salt):
row,Compound,melting point
1,Oc1ccc(-c2ccc(-c3c(Cc4ccccc4)sc4ccccc34)cc2)cc1Br,54 to 56 °C
2,CCCC(C)SC1NN=C(c2ccncc2)N1c1ccccc1 (configuration not stated),96 to 97 °C
3,O=Cc1ccc(Oc2ccc(F)cc2)cc1,69 to 73 °C
4,ON=Cc1cc(Br)ccc1OCc1ccccc1,132 to 134 °C
5,CCNc1ncnc(NCC)c1[N+](=O)[O-],80 to 81 °C
6,COC(=O)C=CC=CCSc1ccc(N(C)C)cc1,68 to 70 °C
7,CSc1ccc(CCCOCCCCCCNCC(O)c2ccc(O)c(F)c2)cc1 (configuration not stated),66 to 67 °C
8,CCCCSc1ccc2c3c(cccc13)C(=O)N2,126 to 129 °C
9,Cc1cc(N)cnc1CCCC#N,103 to 105 °C
10,COc1ccc(C(=N)N)cc1C,151 to 153 °C
11,C=Cc1ncn2c1CN(C)C(=O)c1c(Cl)cccc1-2,205 to 207 °C
12,CCOP(=O)(Cc1ccc(C(=O)O)cc1)OCC,117 to 120 °C
13,Cc1ccc(C(=O)Nc2ccc(C(=O)CCC(=O)O)cc2)cc1,257 to 258 °C
14,CCCCCCCCC(CO)CO,48 to 51 °C
15,Fc1ccc(N2CCC(NCc3ccn4c(CC5CC5)nnc4c3C(F)(F)F)CC2)c(F)c1,118 °C
16,Cc1c(I)c(=O)n(C)c(=O)n1C,155 to 157 °C
17,O=C1CCC(c2ccc(N3CC(CO)OC3=O)cc2)CC1 (racemic),152 °C
18,COC(=O)c1cc(Cl)c(C)c(Br)c1,53 to 55 °C
19,CN(C)CCc1ccc(N)cc1,40 °C
20,Clc1cccc(Oc2nccnc2Cl)c1,83 to 85 °C
21,c1ccc2c(c1)CCN(Cc1cc3ccccc3[nH]1)C2,129 to 131 °C
22,Cc1nc[nH]c1CSCCNC(=N)NCC(C)SCc1[nH]cnc1C (configuration not stated),173 to 175 °C
23,COc1ccc(C(=O)C2CCN(CCCO)CC2)cc1,102 to 105 °C
24,CCCCN(CCCC)CCCNC(=O)c1ccc2oc3ccc(C(=O)NCCCN(CCCC)CCCC)cc3c(=O)c2c1,89 to 92 °C
25,CCC1(CC)c2cc(C)c(C)cc2C(CC)(CC)N1OC(C)=O,80 to 82 °C
26,N#Cc1ccc2cc(CCCCCc3cc4ccc(C#N)cc4o3)oc2c1,106 to 107 °C
27,CCCOc1ccc(C(=O)Nc2ccccc2NC(=O)c2ccc(OCCC)cc2)cc1,195 °C

row,Compound,melting point
1,N#Cc1cc(-c2ccc(Cl)cc2)cnc1N,202 to 204 °C
2,O/N=C1\CCCc2c1c1ccccc1n2-c1ccc(OCc2ccccc2)cc1,241 to 243 °C
3,CCCc1c(O)ccc2c1OC(C)(CCC(N)=O)CC2=O (configuration not stated),108 to 115 °C
4,C=C1CCc2c(F)c(F)cc3c(=O)c(C(=O)O)cn1c23,220 to 232 °C
5,NC(=NO)c1ncn2c1[C@@H]1CCCN1C(=O)c1c(Cl)cccc1-2,249 to 250 °C
6,Cc1cc2c(cc1-c1csc(C=CC(=O)O)c1)C(C)(C)CCC2(C)C,215 to 220 °C
7,Cn1c(C(=O)N[C@H]2CCCC[C@H]2C(=O)N[C@H](C#N)CO)cc2ccccc21,78.4 to 79 °C
8,COc1c(N2C[C@]3(C)CC[C@]3(N)C2)c(F)cc2c(=O)c(C(=O)O)cn([C@@H]3C[C@@H]3F)c12,123 to 125 °C
9,Cc1cc(NCCO)c2[nH]nc(-c3ccccc3)c2n1,135 °C
10,CC(C)(C)c1cc(C(=O)C2CC2)cc(C(C)(C)C)c1O,140 to 142 °C
11,CC1(C)SC(=O)N(Cc2ccccc2[N+](=O)[O-])C1O (configuration not stated),139 to 143 °C
12,CCCCn1nc2c(N)nc3ccccc3c2c1CC(C)C,165 to 166 °C
13,O=C1C(=O)c2ccccc2C2=C1SCC1(CCN(CCCOc3ccc(F)cc3)CC1)O2,164 to 165 °C
14,Cc1nn(-c2ccccc2)c(-c2ccccc2)c1NC(N)=S,212 to 214 °C
15,CC1(C)Cc2sccc2C(NC(N)=O)C1 (configuration not stated),174 to 178 °C
16,c1ccc(COc2cc(-c3ccccn3)nc(-c3cccc(-c4ccccc4)n3)c2)cc1,182 °C
17,N#Cc1nn(-c2c(Cl)cc(C(F)(F)F)cc2Cl)cc1C(=O)C1CC1,195 to 197 °C
18,Cc1nnc2ccc(-c3cccs3)nn12,152 to 153 °C
19,N#CCc1ccc(F)cc1C(=O)O,140 °C
20,CCCn1c(=O)c2c(NC)n[nH]c2n(Cc2cccs2)c1=O,> 300 °C
21,CNC(=NC#N)Nc1ccc(Cl)nc1,227 to 228 °C
22,CC(C)(C)OC(=O)N1CCN(C(=O)c2ccccc2)CC1,106 °C
23,Cn1nc(CC2CC2)c2sc(Cc3cccc(C(F)(F)F)c3)c(O)c2c1=O,92 to 93 °C
24,O=C1COc2cc(NC(=O)C(=O)O)ccc2N1,232 to 236 °C
25,CN(C)Cc1ccc(SC2CCN(C(=O)OCc3ccccc3)CC2)cc1,144 °C
26,O=C(c1nc(-c2ccccc2)nc2ccccc12)N1CCCC1,153 °C
27,CCCCc1cccc(-c2nc(C(C)C)n(C)n2)n1,58.1 °C

# Continued, values first:
row,melting point,Compound
1,167 to 168 °C,Cc1cccc2[nH]c(-c3ccccc3[N+](=O)[O-])nc12
2,102 to 104 °C,C=C(C)CO[C@H]1[C@H](C)OC(=O)[C@@H](NC(=O)c2nccc(OC)c2OCOC(C)=O)COC(=O)[C@@H]1Cc1ccccc1
3,> 250 °C,O=C1NC2COc3cc4c(cc3C2c2ccsc21)OCO4 (configuration not stated)
4,169 to 172 °C,CCn1cc(C(=O)NCc2ccc(Cl)cc2)c(=O)c2cc(CO)sc21
5,109 to 111 °C,CCCN(Cc1ccco1)S(=O)(=O)c1ccc(OC)c2oc(C(C)=O)cc12
6,86 to 87 °C,C/C=C(\C(=O)N(CC)CC)c1cc(OC)c(O)c2c(Cc3ccccc3)cccc12
7,188 °C,CCCCCCc1cc2c(=O)c(-c3ccc(OC)cc3)coc2cc1O
8,139 to 142 °C,N#Cc1ccc(Cn2cncn2)c(-c2ccc(OS(N)(=O)=O)c(Cl)c2)c1
9,105 to 106 °C,Cc1oc(-c2ccco2)nc1COc1ccc(C#N)cn1
10,115 to 116 °C,CC(C)(C)[C@H](NC(=O)[C@@H](CC(=O)OCc1ccccc1)n1ccc(-c2ccc(-c3ccc(C#N)cc3)cc2)c1)C(=O)Nc1ccncc1
11,172 to 174 °C,COc1ccc(-c2c(N)oc3c(C(C)(C)C)cc(C(C)(C)C)cc23)cc1OC
12,249 to 251 °C,COC(=O)Nc1cn2c(S(=O)c3ccccc3)cccc2n1 (configuration not stated)
13,140 to 142 °C,CC(=O)NCc1ccc(C(=O)CCCN2CCC(c3noc4cc(F)ccc34)CC2)s1
14,152 to 154 °C,CCCCCS(=O)(=O)NC(=O)CCc1cc(C2CC2)nn1Cc1ccc(C(F)(F)F)cc1Cl
15,201 to 203 °C,CCOc1cc(C)c(C(=O)N=C(N)N)cc1S(C)(=O)=O
16,232 to 234 °C,Cc1ccccc1-c1c(NC(=O)Nc2ccc(F)cc2F)c(=O)oc2ccc(C)c(C)c12
17,209 °C,CCN1CCC(C(=O)O)(S(=O)(=O)c2ccc(OC)cc2)CC1
18,101 to 103 °C,CC(C)C(=O)c1ccc(-c2ccc3c(c2)CC[C@H]2N(C)C(=O)CC[C@]32C)cc1
19,272 to 273 °C,Cc1cc(N)c2cc(NC(=O)C=Cc3ccccc3C(F)(F)F)ccc2n1
20,174 to 176 °C,CC(C)OC(=O)N1CC(=O)Nc2ccc(-c3cccc(Cl)c3)cc21
21,186 to 191 °C,O=C(CC[C@H]1CC[C@H](Nc2ncc3ncnc(Nc4ccc(F)c(Cl)c4)c3n2)CC1)N1CCOCC1
22,120 to 122 °C,CCN(CC)c1cccc2nc3n(c12)CC(OC)CCN3c1ccc(Cl)cc1Cl (configuration not stated)
23,221 °C,O=C(Nc1nc(C(F)(F)F)co1)C1c2ccccc2Oc2cc(F)ccc21 (racemic)
24,141 to 142 °C,O=[N+]([O-])c1c(C=NO)cccc1OCc1ccccc1

row,melting point,Compound
1,202 to 204 °C,COCOCc1ccccc1C1Cn2cc(C(=O)NCc3ccc(Cl)cc3)c(=O)c3cc(CN4CCOCC4)cc(c32)O1 (configuration not stated)
2,142 to 144 °C,CCOC(=O)C(O)(Cn1cncn1)c1ccc(F)cc1 (configuration not stated)
3,159 to 160 °C,CCc1nn(CC(N)=O)c(CC)c1Oc1cccc(C#N)c1
4,114 °C,COc1ccc(S(=O)(=O)C2(C(=O)NO)CCN(Cc3ccc(OCCN4CCCCC4)cc3)CC2)cc1
5,92 to 94 °C,COc1cc(-n2ccc(C)n2)ccc1C(=O)N1Cc2cccn2Cc2ccccc21
6,> 250 °C,O=C(c1ccoc1)c1ccc2[nH]c(=O)cc(-c3cccc(Cl)c3)c2c1
7,110 °C,CC(Oc1ccc([N+](=O)[O-])cc1F)c1c(Cl)ccc(F)c1Cl (configuration not stated)
8,186 to 188 °C,CCCc1nc2c(N)nc3ccccc3c2n1CCCCNS(C)(=O)=O
9,96 to 97 °C,CCCCc1nc(Cl)c(C=O)n1Cc1ccc(-c2ccccc2C#N)cc1
10,285 °C,Cc1cc(-c2ccc(C(F)(F)F)cc2)cn2c(-c3nc(-c4ccc(S(N)(=O)=O)s4)no3)cnc12
11,88 °C,Cc1cccc(-c2nc3ccc(OCCCl)cc3n2Cc2ccccc2)c1
12,119 to 120 °C,CCOC(=O)c1cnc2n(c1=O)C(C)CC=C2Nc1ccccc1 (configuration not stated)
13,153 to 155 °C,CC(C)(C)c1cc(CCC(=O)Nc2ccc(S(=O)(=O)NCCBr)cc2)cc(C(C)(C)C)c1O
14,236 to 243 °C,COc1cc(/C=C/c2cc(/C=C/c3ccc4cc[nH]c4c3)n[nH]2)ccc1OCc1ccccn1
15,208 to 210 °C,N#Cc1ccc(C(=O)N2CCNC2=Nc2c(Cl)cccc2Cl)cc1
16,131 °C,COC(=O)C(C)(C)OCc1cc2nc(Cl)ccc2n1S(=O)(=O)c1ccc2c(c1)OCO2
17,137 to 139 °C,O=C1N(CC2CCCO2)c2cc(F)ccc2C12COc1cc3c(cc12)CCO3 (configuration not stated)
18,183 to 186 °C,Cc1cc(C)c(C)c(COc2ccc(-c3ccoc3C(=O)NNC(=O)c3ccc(O)c(C#N)c3)cc2)c1C
19,270 to 275 °C,CC(C)(C)c1ccc(-c2ccc3nncn3n2)cc1
20,144 to 146 °C,CC(=O)NC[C@H]1CN(c2ccc(C3CCN(C(=O)OC(C)(C)C)CC3)c(F)c2)C(=O)O1
21,223 °C,Oc1ccc2nccc(Cl)c2c1
22,243 to 245 °C,NS(=O)(=O)c1ccc(C(=O)NCCc2ccccc2)cc1
23,166 to 169 °C,CCCn1nc2c(N)nc3ccccc3c2c1CCCCS(=O)(=O)NC
24,213 to 214 °C,CC(C)(CC(O)(Cn1ccc2c1CCCC2=O)C(F)(F)F)c1cc(-c2cncnc2)cc2c1OCC2 (configuration not stated)
